Laboratory results from paper PMC6929626, “PET/MRI enables simultaneous in vivo quantification of β-cell mass and function” (Theranostics, 2020).

Tested on: isolated pancreatic islets
Assay: Glucose-dependent insulin secretion of isolated islets after in vivo MnCl2:Bicine (radioimmunoassay)
Design: species or system mice
Protocol: The chronic exposure to high concentrations of Mn can potentially lead to cytotoxic effects on heart, liver and brain [26]. We hypothesized that the early and late retention of Mn might impair the physiological integrity of the glucose-dependent insulin response of islet cells. To investigate the physiological function of the islets, glucose-dependent insulin secretion was measured in vitro 1 or 24 h after a single systemic in vivo administration of MnCl2:Bicine solution (75 µmol/kg) on a new group of mice (Table. 1, Group 4). Secretion assays were performed on isolated islets, followed by quantification of insulin content using radioimmunoassay. The response to glucose of each individual mouse was assessed by calculating the enhancement of insulin secretion between basal (3 mM) and stimulating glucose concentration (15 mM).
Before the isolation of islets, control and RIP1-Tag2 mice previously anesthetized using 1-2% isoflurane/O2 gas mixture (Vetland, Louisville, KY, USA) and intravenously injected with a bolus of MnCl2:Bicine solution (75 µmol/kg), analogously to the in vivo imaging protocol. […] The content of insulin in the supernatant was determined by radioimmunoassay using as insulin standards Millipore 8013-K (Merck, Darmstadt, DE). […]

Substance: MnCl2:Bicine
- effect of contrast agent accumulation on glucose-dependent insulin secretion response (islets isolated 1 h and 24 h after single i.v. 75 µmol/kg, 8-wk old control and RIP1-Tag2 mice): not affected
- enhancement of insulin secretion, stimulating (15 mM) vs basal (3 mM) glucose (islets of 8-wk old control and RIP1-Tag2 mice isolated 1 or 24 h after single i.v. 75 µmol/kg, radioimmunoassay, n=3/3): 10-20 times
